Series [1] has as its system myeloperoxidase (MPO) activity. The series is described as follows: Carrageenan-induced arthritis model: MPO activity as marker of neutrophil infiltration. It counts as in vivo, mice. As to conditions: 50 μl s.c. right hind paw; 5% carrageenan 18 hours later; measured 6 hours after carrageenan.
Experimental: Five mice (n=5) were used in each of 9 groups (Control, RIG, nRIG, Saline@Carr, RIG@Carr, nRIG@Carr, 4-amino-TEMPO@Carr, RNP^N@Carr, nRIG+4-amino-TEMPO@Carr).
50 μl each of nitroxide radical-containing polyion complex micelles for forming an RIG gel (RIG; molar ratio r=1:1, pH 6, 60 mg/ml), nitroxide radical-free polyion complex micelles for forming an nRIG gel (nRIG; molar ratio r=1:1, pH 6, 60 mg/ml), saline, a low-molecular-weight nitroxide radical compound solution (4-aminoTEMPO; 5.45 mg/ml), a nitroxide radical-containing polymer micelle solution (RNP^N; 60 mg/ml), and a solution of low-molecular-weight 4-aminoTEMPO physically mixed with nitroxide radical-free polyion complex micelles (n-RIG+4-aminoTEMPO; molar ratio r=1:1, pH 6, 60 mg/ml) was then injected subcutaneously into the right hind paws of mice. 18 hours later, 50 μl of 5% carrageenan buffer was injected subcutaneously into the right hind paws of the mice in the Saline@Carr, RIG@Carr, nRIG@Carr, 4-amino-TEMPO@Carr, RNP^N@Carr, and nRIG+4-aminoTEMPO@Carr groups (n=5). Nothing was administered to the Control group (n=5). […] The collected tissue of the mouse right hind paws was then homogenized, and the amount of inflammatory cytokines (TNF-α and IL-1β) and myeloperoxidase (MPO) activity as a marker of neutrophil infiltration were measured with an ELISA kit in the supernatant collected by centrifugation.
Series [2] is described as follows: Local retention of injectable gel, imaging by L-band electron spin resonance. As to conditions: 70 μl s.c. into hind paw.
Experimental: Three mice were used in each group. 70 μl of a solution of the nitroxide radical-containing polyion complex micelles used in Test 1 (PMNT-b-PEG-b-PMNT to PAA molar ratio r=1:1 (RIG). pH 6, 60 mg/ml) was injected subcutaneously into the left hind paws of three mice. […] Local retention of nitroxide radicals in the mouse paws was imaged by L-band electron spin resonance (ESR) using mice immediately after administration.

For the compound `CC1(C)CC(N)CC(C)(C)N1[O]` [4-aminoTEMPO, 4-amino-TEMPO], the “suppression of MPO activity caused by carrageenan” value in series [1] is given as “not significantly suppressed”. For the same compound, the “time after administration at which ESR signal disappeared from mouse paws” value in series [2] was not above 30 min.

Source of the values: patent publication US9849186B2, “Triblock copolymer and use therefor” (priority 2012, dated 2017).
